Measurements as given in PubChem BioAssay AID330 (DTP/NCI, 2004).
“And” between values parts separate entries of the source, which are not always exact repeats. Identical values can stand only once. Inconclusive results and toxic doses are left out.

Test system: P388 leukemia ip, CD2F1 mice, survival T/C
Test: NCI In Vivo Anticancer Drug Screen. Data for tumor model P388 Leukemia (intraperitoneal) in CD2F1 (CDF1) mice
Conditions: endpoint: median survival time, higher = longer survival
Procedure, shortened: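 Mice carrying the transplanted tumor received test compound or vehicle. Survival was recorded in each group, and the value is the treated-group measurement divided by that of the vehicle-treated control group.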

[1] = dose: 60.0 mg/kg/injection, schedule: Q01DX005 (ip), vehicle: saline with Tween-80
[2] = dose: 120.0 mg/kg/injection, schedule: Q01DX005 (ip), vehicle: saline with Tween-80
[3] = dose: 240.0 mg/kg/injection, schedule: Q01DX005 (ip), vehicle: saline with Tween-80
[4] = dose: 50.0 mg/kg/injection, schedule: Q01DX009 (ip), vehicle: saline with Tween-80
[5] = dose: 100.0 mg/kg/injection, schedule: Q01DX009 (ip), vehicle: saline with Tween-80
[6] = dose: 200.0 mg/kg/injection, schedule: Q01DX009 (ip), vehicle: saline with Tween-80
[7] = dose: 50.0 mg/kg/injection, schedule: Q01DX009 (ip), vehicle: Klucel (hydroxypropylcellulose) (HPC)
[8] = dose: 100.0 mg/kg/injection, schedule: Q01DX009 (ip), vehicle: Klucel (hydroxypropylcellulose) (HPC)
[9] = dose: 200.0 mg/kg/injection, schedule: Q01DX009 (ip), vehicle: Klucel (hydroxypropylcellulose) (HPC)
[10] = dose: 50.0 mg/kg/injection, schedule: Q01DX009 (ip), vehicle: saline
[11] = dose: 100.0 mg/kg/injection, schedule: Q01DX009 (ip), vehicle: saline
[12] = dose: 200.0 mg/kg/injection, schedule: Q01DX009 (ip), vehicle: saline
[13] = dose: 100.0 mg/kg/injection, schedule: Q04DX003 (ip), vehicle: saline
[14] = dose: 200.0 mg/kg/injection, schedule: Q04DX003 (ip), vehicle: saline
[15] = dose: 400.0 mg/kg/injection, schedule: Q04DX003 (ip), vehicle: saline
[16] = dose: 50.0 mg/kg/injection, schedule: Q01DX005 (ip), vehicle: saline with Tween-80
[17] = dose: 200.0 mg/kg/injection, schedule: Q01DX005 (ip), vehicle: saline with Tween-80
[18] = dose: 25.0 mg/kg/injection, schedule: Q01DX009 (ip), vehicle: saline with Tween-80

## COc1cc2cc(c1Cl)N1CC(=O)C(C)(O)C(=O)N(C)C(C)C(=O)OC(CC1=O)C1(C)OC1C(C)C1CC(O)(NC(=O)O1)C(OC)/C=C\C=C(\C)C2OC (configuration not stated)
dose: 2.0 micrograms/kg/injection, schedule: Q01DX009 (ip), vehicle: distilled water + alcohol
  T/C: 151 % of control
dose: 4.0 micrograms/kg/injection, schedule: Q01DX009 (ip), vehicle: distilled water + alcohol
  T/C: 153 % of control and 168 % of control
dose: 16.0 micrograms/kg/injection, schedule: Q01DX009 (ip), vehicle: distilled water + alcohol
  T/C: 210 % of control

## N#CC1CC2C=CC1C2 (configuration not stated)
dose: 5.0 mg/kg/injection, schedule: Q01DX009 (ip), vehicle: saline sonified
  T/C: 109 % of control
dose: 10.0 mg/kg/injection, schedule: Q01DX009 (ip), vehicle: saline sonified
  T/C: 109 % of control
dose: 20.0 mg/kg/injection, schedule: Q01DX009 (ip), vehicle: saline sonified
  T/C: 90 % of control

## Cc1ccc(C)c(NC(=O)CCC(=O)C(C#N)c2cccc3ccccc23)c1 (configuration not stated)
[1]
  T/C: 104 % of control
[2]
  T/C: 104 % of control
[3]
  T/C: 105 % of control

## NC1=NS(=O)(=O)Nc2nonc21
[4]
  T/C: 96 % of control
[5]
  T/C: 89 % of control
[6]
  T/C: 89 % of control

## BrC/C(=N\N=C(/CBr)c1ccccc1)c1ccccc1
[7]
  T/C: 103 % of control
[8]
  T/C: 112 % of control
[9]
  T/C: 96 % of control

## CCOC(=O)c1[nH]cnc1/N=N/c1nc(O)c(C#N)[nH]1
dose: 60.0 mg/kg/injection, schedule: Q01DX005 (ip), vehicle: suspension in saline
  T/C: 97 % of control
dose: 120.0 mg/kg/injection, schedule: Q01DX005 (ip), vehicle: suspension in saline
  T/C: 100 % of control
dose: 240.0 mg/kg/injection, schedule: Q01DX005 (ip), vehicle: suspension in saline
  T/C: 100 % of control

## CCC[CH2][Hg][O]C(C)=O
dose: 2.0 mg/kg/injection, schedule: Q01DX009 (ip), vehicle: other
  T/C: 95 % of control
dose: 3.0 mg/kg/injection, schedule: Q01DX009 (ip), vehicle: other
  T/C: 100 % of control
dose: 4.5 mg/kg/injection, schedule: Q01DX009 (ip), vehicle: other
  T/C: 113 % of control

## Cc1c(C)c2ccc(N(C)C)cc2[nH]c1=O
[7]
  T/C: 113 % of control
[8]
  T/C: 106 % of control
[9]
  T/C: 106 % of control

## CC1C[N+]2(CNC(=O)c3ccccc3O)CC(C)O[B-]2(c2ccccc2)O1 (configuration not stated)
dose: 50.0 mg/kg/injection, schedule: Q01DX005 (ip), vehicle: Klucel (hydroxypropylcellulose) (HPC)
  T/C: 103 % of control
dose: 100.0 mg/kg/injection, schedule: Q01DX005 (ip), vehicle: Klucel (hydroxypropylcellulose) (HPC)
  T/C: 100 % of control
dose: 200.0 mg/kg/injection, schedule: Q01DX005 (ip), vehicle: Klucel (hydroxypropylcellulose) (HPC)
  T/C: 103 % of control

## N#C/C(=C\c1ccc2c(c1)OCO2)C(=O)N/N=C/c1ccc2c(c1)OCO2
[10]
  T/C: 101 % of control
[11]
  T/C: 98 % of control
[12]
  T/C: 94 % of control

## CC(=O)c1c(O)c(C)c(O)c2c1OC1=Cc3c(c(C)nn3C)C(=O)C12C (configuration not stated)
dose: 6.25 mg/kg/injection, schedule: Q01DX009 (ip), vehicle: gum acacia
  T/C: 100 % of control and 109 % of control
dose: 50.0 mg/kg/injection, schedule: Q01DX009 (ip), vehicle: gum acacia
  T/C: 119 % of control and 92 % of control and 93 % of control

## CCOC(=O)Cc1cc2c(cc1C)CNC(=O)C2
dose: 6.25 mg/kg/injection, schedule: Q01DX009 (ip), vehicle: distilled water + Tween-80
  T/C: 94 % of control
dose: 12.5 mg/kg/injection, schedule: Q01DX009 (ip), vehicle: distilled water + Tween-80
  T/C: 100 % of control
dose: 25.0 mg/kg/injection, schedule: Q01DX009 (ip), vehicle: distilled water + Tween-80
  T/C: 100 % of control
dose: 50.0 mg/kg/injection, schedule: Q01DX009 (ip), vehicle: distilled water + Tween-80
  T/C: 94 % of control
dose: 100.0 mg/kg/injection, schedule: Q01DX009 (ip), vehicle: distilled water + Tween-80
  T/C: 94 % of control
dose: 200.0 mg/kg/injection, schedule: Q01DX009 (ip), vehicle: distilled water + Tween-80
  T/C: 90 % of control
dose: 400.0 mg/kg/injection, schedule: Q01DX009 (ip), vehicle: distilled water + Tween-80
  T/C: 102 % of control

## N/C(C/C(=N/OC(=O)c1ccccc1)OC(=O)c1ccccc1)=N/O
[13]
  T/C: 101 % of control
[14]
  T/C: 107 % of control
[15]
  T/C: 99 % of control

## NC(CCCCNCC(N)C(=O)O)C(=O)O (configuration not stated)
[10]
  T/C: 91 % of control
[11]
  T/C: 89 % of control
[12]
  T/C: 92 % of control

## O=C(O)c1nc2ccccc2c2ncccc12
dose: 25.0 mg/kg/injection, schedule: Q04DX002 (ip), vehicle: saline with Tween-80
  T/C: 101 % of control
dose: 50.0 mg/kg/injection, schedule: Q04DX002 (ip), vehicle: saline with Tween-80
  T/C: 92 % of control
dose: 100.0 mg/kg/injection, schedule: Q04DX002 (ip), vehicle: saline with Tween-80
  T/C: 94 % of control

## CC(=O)OC1SC(OC(C)=O)C2OC(=O)OC12 (configuration not stated)
[4]
  T/C: 101 % of control
[5]
  T/C: 108 % of control
[6]
  T/C: 100 % of control

## Cc1cccc(NC(=O)Nc2ccc(F)cc2)n1
dose: 60.0 mg/kg/injection, schedule: Q01DX005 (ip), vehicle: Klucel (hydroxypropylcellulose) (HPC)
  T/C: 101 % of control
dose: 120.0 mg/kg/injection, schedule: Q01DX005 (ip), vehicle: Klucel (hydroxypropylcellulose) (HPC)
  T/C: 96 % of control
dose: 240.0 mg/kg/injection, schedule: Q01DX005 (ip), vehicle: Klucel (hydroxypropylcellulose) (HPC)
  T/C: 100 % of control

## O=C1c2ccccc2C(=O)c2c(OCCOCCO)cccc21
[16]
  T/C: 118 % of control
dose: 100.0 mg/kg/injection, schedule: Q01DX005 (ip), vehicle: saline with Tween-80
  T/C: 112 % of control
[17]
  T/C: 96 % of control

## CCOC(=O)/C=C(\C)N1CCCCC1
[13]
  T/C: 100 % of control
[14]
  T/C: 100 % of control
[15]
  T/C: 100 % of control

## C/C=C\n1ccccc1=O
[10]
  T/C: 107 % of control
[11]
  T/C: 113 % of control
[12]
  T/C: 109 % of control

## O=C1CN(c2cccc(Cl)c2)C(=O)CN1/N=C/c1cccnc1
dose: 25.0 mg/kg/injection, schedule: Q01DX005 (ip), vehicle: saline with Tween-80
  T/C: 96 % of control
[16]
  T/C: 87 % of control and 91 % of control
[17]
  T/C: 87 % of control

## CC1NC(CCCCCCCCCCC2=CC(CCCCCCCCCCC3CCC(O)C(C)N3)C3CCCN3C2)CCC1O (configuration not stated)
dose: 0.93 mg/kg/injection, schedule: Q01DX005 (ip), vehicle: water
  T/C: 95 % of control
dose: 1.87 mg/kg/injection, schedule: Q01DX005 (ip), vehicle: water
  T/C: 96 % of control
dose: 3.75 mg/kg/injection, schedule: Q01DX005 (ip), vehicle: water
  T/C: 91 % of control and 92 % of control and 94 % of control
dose: 7.5 mg/kg/injection, schedule: Q01DX005 (ip), vehicle: water
  T/C: 93 % of control

## CC(=O)Nc1ccc(S(=O)(=O)/N=C2\C=CC(=O)c3ccccc32)cc1
[18]
  T/C: 105 % of control
[4]
  T/C: 115 % of control
[5]
  T/C: 110 % of control

## COc1ccc(OC)c(N2C(=O)C=C(C)C2(O)CC#N)c1 (configuration not stated)
dose: 6.25 mg/kg/injection, schedule: Q01DX009 (ip), vehicle: saline with Tween-80
  T/C: 100 % of control
dose: 12.5 mg/kg/injection, schedule: Q01DX009 (ip), vehicle: saline with Tween-80
  T/C: 95 % of control
[18]
  T/C: 98 % of control
[4]
  T/C: 98 % of control

## CC(=O)OC1CC(/C=C/C(=O)OC2=C(O)CCC2=O)=CN1 (configuration not stated)
dose: 4.37 mg/kg/injection, schedule: Q01DX001 (ip), vehicle: Klucel (hydroxypropylcellulose) (HPC)
  T/C: 100 % of control
dose: 8.75 mg/kg/injection, schedule: Q01DX001 (ip), vehicle: Klucel (hydroxypropylcellulose) (HPC)
  T/C: 99 % of control
dose: 17.5 mg/kg/injection, schedule: Q01DX001 (ip), vehicle: Klucel (hydroxypropylcellulose) (HPC)
  T/C: 102 % of control
dose: 35.0 mg/kg/injection, schedule: Q01DX001 (ip), vehicle: Klucel (hydroxypropylcellulose) (HPC)
  T/C: 105 % of control

## COc1ccc(C)cc1C(CC(=O)O)CC(=O)N(CCCl)CCCl (configuration not stated)
[13]
  T/C: 102 % of control
[14]
  T/C: 100 % of control
[15]
  T/C: 102 % of control

## O=C1OC(=O)C2C1C1C(c3ccccc3)=C(c3ccccc3)C2C2C(=O)OC(=O)C21 (configuration not stated)
[1]
  T/C: 103 % of control
[2]
  T/C: 111 % of control
[3]
  T/C: 116 % of control
